According to ChEMBL document CHEMBL4308892, “Synthesis and anti-neuroinflammatory activity of N-heterocyclic analogs based on natural biphenyl-neolignan honokiol” (Bioorg Med Chem Lett, 2019):

Tests used:
BV-2 [1] = test: Anti-inflammatory activity in mouse BV2 cells assessed as inhibition of LPS-induced nitric oxide production after 24 hrs by griess assay; type: functional, cell-based; details: for IC50: BV-2, 24 h
[2] = Cytotoxicity against LPS-stimulated mouse BV2 cells assessed as cell viability at 20 uM after 24 hrs by MTT assay relative to control; type: cell-based, BV-2; details: read-out: Activity
BV-2 [3] = test: Cytotoxicity against LPS-stimulated mouse BV2 cells assessed as reduction in cell viability at <10 uM after 24 hrs by MTT assay; type: cell-based; details: bv-2, 24 h
BV-2 [4] = test: Anti-inflammatory activity in mouse BV2 cells assessed as inhibition of LPS-induced iNOS expression after 24 hrs by Western blot analysis; type: functional, cell-based
BV-2 [5] = test: Anti-inflammatory activity in mouse BV2 cells assessed as inhibition of LPS-induced COX2 expression after 24 hrs by Western blot analysis; type: functional, cell-based
BV-2 [6] = test: Anti-inflammatory activity in mouse BV2 cells assessed as inhibition of LPS-induced nitric oxide production pretreated followed by LPS-stimulation by griess assay; type: functional, cell-based

Compound | IC50 (BV-2 [1]) [µM] | viability at 24 h, 20 µM [2] [%] | also measured
C=CCc1ccc(OC)c(-c2cc(CN3CCN(Cc4ccccc4)CC3)on2)c1 | > 200 | 98.6 | –
C=CCc1ccc(O)c(-c2ccn(CC=C)n2)c1 | 1.2 | 59.9 | inhibition (BV-2 [1]): Dose-dependent effect; Activity (BV-2 [3]): Non-Toxic; inhibition (BV-2 [4]): Dose-dependent effect; inhibition (BV-2 [5]): Dose-dependent effect
COc1ccc(Br)cc1-c1cc(CO)on1 | > 200 | 94.1 | –
C=CCc1ccc(OC)c(-c2cc(CN3CCN(CC=C)CC3)on2)c1 | 111 | 101 | –
CCCc1ccc(O)c(-c2ccn(CCC)n2)c1 | 91.3 | 129 | –
COc1ccc(Br)cc1-c1ccn(-c2ccccc2)n1 | > 200 | 124 | –
Oc1ccc(Br)cc1-c1ccn(-c2ccccc2)n1 | > 200 | 109 | –
C=CCc1ccc(OC)c(-c2cc(COCC(=O)OCC)on2)c1 | 25.9 | 126 | –
C=CCc1ccc(O)c(-c2ccn(Cc3ccccc3)n2)c1 | 92.5 | 99.5 | –
CCCc1ccc(O)c(-c2ccn(Cc3ccccc3)n2)c1 | 116 | 126 | –
C=CCc1ccc(O)c(-c2cc(CCC)on2)c1 | > 200 | 93.3 | –
C=CCc1ccc(OC)c(-c2ccn(-c3ccccc3)n2)c1 | 8.92 | 68.6 | inhibition (BV-2 [1]): Dose-dependent effect; Activity (BV-2 [3]): Non-Toxic; inhibition (BV-2 [4]): Dose-dependent effect; inhibition (BV-2 [5]): Dose-dependent effect
C=CCc1ccc(O)c(-c2cc(CO)on2)c1 | > 200 | 126 | –
C=CCc1ccc(O)c(-c2ccc(O)c(CC=C)c2)c1 [HONOKIOL] | 17 | 118 | –
CCOC(=O)COCc1cc(-c2cc(Br)ccc2OC)no1 | > 200 | 122 | –
CCCc1cc(-c2cc(Br)ccc2OC)no1 | > 200 | 97.9 | –
CCCn1ccc(-c2cc(CC)ccc2O)n1 | > 200 | 109 | –
C=CCc1ccc(OC)c(-c2cc(CCC)on2)c1 | > 200 | 98.2 | –
COc1ccc(Br)cc1-c1cc(CN2CCN(C(=O)OC(C)(C)C)CC2)on1 | > 200 | 100 | –
C=CCc1ccc(O)c(-c2ccc(OC)c(CC=C)c2)c1 [METHYLHONOKIOL] | 52.3 | 115 | –

Compound | IC50 (BV-2 [1]) [µM] | viability at 24 h, 20 µM [2] [%] | also measured
C=CCn1ccc(-c2cc(C=C)ccc2O)n1 | 30.5 | 105 | –
C=CCn1ccc(-c2cc(Br)ccc2O)n1 | 112 | 113 | –
C=CCn1ccc(-c2cc(Br)ccc2OC)n1 | > 200 | 92.2 | –
C=CCc1ccc(O)c(-c2ccn(-c3ccccc3)n2)c1 | 73 | 125 | –
CCCc1ccc(O)c(-c2ccn(-c3ccccc3)n2)c1 | 109 | 125 | –
CCCc1ccc(O)c(-c2cc[nH]n2)c1 | 60.2 | 94.7 | –
CNC(=N)NCCC[C@H](N)C(=O)O [TILARGININE] | 26.6 | 94.4 | –
C=CCc1ccc(OC)c(-c2cc(CN3CCN(C(=O)OC(C)(C)C)CC3)on2)c1 | 76.9 | 117 | –
C=CCc1ccc(OC)c(-c2ccn(Cc3ccccc3)n2)c1 | 36 | 112 | –
Oc1ccc(Br)cc1-c1ccn(Cc2ccccc2)n1 | > 200 | 107 | –
C=CCc1ccc(OC)c(-c2cc(CO)on2)c1 | > 200 | 120 | –
C=CCOCc1cc(-c2cc(CC=C)ccc2OC)no1 | 28.7 | 141 | –
C=CCOCc1cc(-c2cc(Br)ccc2OC)no1 | 90.4 | 94.6 | –
COc1ccc(Br)cc1-c1ccn(Cc2ccccc2)n1 | > 200 | 122 | –
C=CCc1ccc(OC)c(-c2cc(CN3CCN(CC(=O)OCC)CC3)on2)c1 | > 200 | 93.2 | –
CCCCC/C=C/C(=O)CCc1ccc(O)c(OC)c1 [SHOGAOL] | – | – | IC50 (BV-2 [6]): 5.59 µM
COc1ccc(Br)cc1-c1cc(COCc2ccccc2)on1 | > 200 | 104 | –
C=CCc1ccc(OC)c(-c2cc(COCc3ccccc3)on2)c1 | > 200 | 145 | –
C=CCc1ccc(OC)c(-c2ccn(CC=C)n2)c1 | > 200 | 109 | –
